Entries after “also recorded” stand apart in the source; their conditions may differ.
Key:
Anopheles gambiae [1] = assay: Electroantennogram (EAG) screening assay on female antennae
Procedure: EAG recordings were obtained using a Combi Probe (Syntech, Kirchzarten, Germany) fitted with glass capillary Ag/AgCl electrodes, filled with insect Ringer solution. Fine, tapered capillaries were prepared on a Gravipull-2 capillary puller (Kation Scientific, Minneapolis, USA). Data were recorded with an IDAC-4 data acquisition system (Syntech), interfaced with a computer that had the software EAGpro (version 1.1, Syntech). Stimuli were dissolved in hexane […] and applied to small filter papers (Whatman No. 1) (10 μL). This gave doses on the filter paper of 1 μg, 10 μg and 100 μg. After evaporation of the solvent, the filter papers were placed in a Pasteur pipette. Pipettes were attached to a CS-55 stimulus controller ([…]) that delivered a pulse of air (30 mL/s) through the pipette and into a metal stimulus delivery tube (Ø 0.95 cm×18 cm) that dispensed a continuous airflow (25 mL/s) and was positioned approximately 2 cm from the mosquito antenna so that the airflow contacted the entire antenna. The duration of the pulse was 0.7 s. Screening took place on A. gambiae females 4-7 days post-eclosion. Females were starved (sugar water replaced with distilled water in the colony cage) for 24 hours before trials to ensure a standard hunger level in test subjects. Mosquitoes were prepared for trials in this manner: the head of the mosquito was excised and the base of the head was connected to the ground electrode. The tip of the distal segment of one antenna was cut and inserted it into the recording electrode. Only mosquitoes producing a steady baseline reading were used for trials. All readings were taken within 10 minutes of the time the mosquito was prepared and each female was tested only once with one full chemical series. Trials included human scent emanating from a sock (Tradition brand, nylon) previously conditioned through 30 minutes of vigorous exercise by a volunteer and incubated at 28° C. and 80% RH for 24 hours. […] For trials, the sock was cut into 0.5 cm×3 cm strips and put into the pipette dispensing the odor pulses. Odors in each run were presented to the mosquito in the following order with at least 25 seconds between odor pulses: no odor, no odor, 10 μg DEETTM, 10 μg chemical, no odor, no odor, human scent only, human scent with 1 μg chemical, human scent with 10 μg chemical, human scent with 100 μg chemical, human scent only, no odor, no odor, 10 μg DEETTM. Several of these pulses served as internal controls to ensure that the mosquito antenna was still responding to the stimuli, or the human odor was detectable to the mosquito. One of the pulses, such as air pulse, produced a response, but it is smaller than that of odor or of presented compounds, seven […]. The DEETTM pulses were included as a reference. The pulses of interest were those containing both the human odor and chemical of interest in various concentrations. 9 runs were completed for each chemical tested and recorded the amplitude of the peaks produced for each odor pulse. […] All data were analyzed in R version 2.15.0 (R Development Core Team, 2012). […] EAG activity values were analyzed using a generalized least squares ANOVA with a variance structure that accounts for measurements within runs being more similar than measurements between runs. […] Behavioural assay data was analyzed using a MANOVA with solvent type and chemical (including concentration) as factors. […]

Anopheles gambiae [2] = assay: Behavioural olfactometer assay with human odor source protected by chemical and alternate plant (honey) odor source; assay type: in vivo; conditions: for repelling efficacy, DEET vs 3c{3,6}: 0.1% solution; for total experiment time (time in the proximity of the human odor source) vs unprotected control / probe time (time on the human odor source) vs unprotected control / number of probe attempts at the human odor source vs unprotected control: 1% chemical on mesh over human odor, P<0.05; for total experiment time (time in the proximity of the human odor source) vs unprotected control: FIG. 5A; for probe time (time on the human odor source) vs unprotected control: FIG. 5B; for number of probe attempts at the human odor source vs unprotected control: FIG. 5C
Procedure: The olfactometer procedure and materials used in this study are similar to those employed by Zappia and Roitberg (2012) Energy-state dependent responses of Anopheles gambiae (Diptera: Culicidae) to simulated bednet-protected hosts. J. Vector Ecol. 37 (1): 173-8, herein incorporated by reference in its entirety. The behavioral assay was conducted in a custom-made glass olfactometer tube (145 cm long, 17 cm diameter) (FIG. 2). A mosquito release chamber was located on one side of the tube and consisted of a small tube with a gate attached separating the mosquito from the experiment arena. A small sac (10 cm×3 cm in diameter) made of mesh (Onsight equipment insecticide free hiker's mosquito shelter) was positioned 60 cm from the end of the release chamber. The mesh sac was immersed in the treatment compound immediately before trials and allowed to dry before the trial began. The sac contained human odor in the form of a sock (Secret brand, nylon) conditioned through 30 minutes of strenuous exercise and incubated at 28° C. and 80% RH for 24 hours before use. This sock was tested to ensure it was attractive to mosquitoes at the beginning of each trial day (by placing it in a non-experimental colony cage and observing whether females in the cage would seek it out to probe at it) and replaced every 5 days. A breathing tube was also attached to the human odor/chemical complex that allowed a one-way flow of exhaled carbon dioxide into the arena through the sock to make the human odor more attractive to A. gambiae. Carbon dioxide was exhaled into this tube once every 15 seconds during trials. An odor-producing sugar source was located 73 cm from the human odor/chemical complex. This consisted of a cotton ball impregnated with approximately 5 g of honey (Kidd Bros, Alfalfa Clover). The ball was suspended on a metal stage from the top of the olfactometer tube. This gave the mosquito an alternative during trials from seeking the human odor source. At the opposite end of the tube from the release gate was an air source pumping a one-way source of carbon-filtered air into the olfactometer arena flowing from the sugar source to the human odor to the release gate at a rate of 0.025 L/s. The olfactometer was rinsed daily with acetone and water to minimize residual odors. A 2×5 factorial design was used with solvent type and chemical as factors. The solvent types tested were a 1:1 and 1:5 ratio of isopropyl alcohol to water. Two different solvent types were assessed to determine the lowest ratio of alcohol to water that would be effective, since a lower concentration of alcohol is both more cost effective and practical in the field. […] In addition, we tested DEET™ as a positive control compound. Two concentrations of DEET™ and 3c{3,6} (0.1% and 1%) and a control were assessed for each solvent consisting of the solvent without the active ingredient (0% concentration). Female A. gambiae (4-7 days old, not previously blood-fed, and without a visibly swollen abdomen, wing size 2.93 mm-3.49 mm) were starved for 24 hours before assays. All assays were run under dim red light (1.79 μmol photons/(s×m^2)) in the colony chamber 1-5 hours after darkness since this is the period in which blood-seeking behaviour in females is highest. Mosquitoes were allowed to acclimate in the release chamber for 3 minutes before trials began. After 3 minutes, the release gate was opened. […] When the mosquito entered the arena, timing began. During trials, the olfactometer design was such that the mosquito encountered the human odor/chemical first, followed by the sugar odor source. The experiment arena consisted of the area in the olfactometer that was placed in front of the plant odor source, relative to the release point of the mosquito. Trials ended when the mosquito landed anywhere in the arena and rested for 5 minutes or flew to the plant sugar source. […]

[3] = tested on: olfactory receptor neurons on the maxillary palps of A. gambiae; conditions: cited from earlier work
Culex quinquefasciatus = conditions: cited from earlier work
Aedes aegypti = conditions: cited from earlier work
[4] = tested on: neurons in the sacculus on the antenna that express an ionotropic receptor (IR40a); conditions: cited from earlier work

## CCN(CC)C(=O)c1cccc(C)c1 [DEET™, N—N-diethyl-meta-toluamide]
Anopheles gambiae [1]; compound + human scent
  enhancement or inhibition of antennal responses to human scent: did not affect the responses to the human scent
Anopheles gambiae [1]; compound alone, EAG
  antennal (olfactory) response to compound by itself: responded; also recorded: elicited olfactory responses by itself
Anopheles gambiae [2]
  repelling efficacy, DEET vs 3c{3,6}: more effective at repelling A. gambiae individuals than a 0.1% solution of 3c{3,6}
  total experiment time (time in the proximity of the human odor source) vs unprotected control: spent less time in the proximity of the human odor source
  probe time (time on the human odor source) vs unprotected control: spent less time on the human odor source
  number of probe attempts at the human odor source vs unprotected control: attempted to probe less
[3]
  inhibition of olfactory receptor neurons (decreased response to 1-octen-3-ol): inhibits olfactory receptor neurons on the maxillary palps of A. gambiae
Culex quinquefasciatus
  direct detection of DEET: detect DEET™ directly
  inhibition of neuron response to 1-octen-3-ol: this inhibition was not detected
Aedes aegypti
  direct detection of DEET: detect DEET™ directly
  inhibition of neuron response to 1-octen-3-ol: this inhibition was not detected
[4]
  stimulation of IR40a-expressing sacculus neurons: stimulate neurons in the sacculus on the antenna of Drosophila melanogaster

## C=CCOc1ccc(OCCC)cc1 [3c{3,6}, 1-allyloxy-4-propoxybenzene]
Anopheles gambiae [1]; 100 μg dose, FIG. 6
  depolarization response of compound by itself: one of the largest depolarization responses by itself
Anopheles gambiae [1]; FIG. 4, difference not significant (P>0.05)
  air-corrected antennal depolarization, chemical alone (without the human odor): larger air-corrected antennal depolarization than the other compounds tested
Anopheles gambiae [1]; human scent with 1 μg, 10 μg, 100 μg chemical (pooled), FIG. 3
  EAG activity: response to repellent/human odor source combination compared to DEET reference peak: largest activity of all the compounds tested
Anopheles gambiae [2]
  repelling efficacy, DEET vs 3c{3,6}: a 0.1% solution of DEET™ was more effective
  total experiment time (time in the proximity of the human odor source) vs unprotected control: spent less time in the proximity of the human odor source
  probe time (time on the human odor source) vs unprotected control: spent less time on the human odor source
  number of probe attempts at the human odor source vs unprotected control: attempted to probe less
Anopheles gambiae [2]; 1% solution
  behavioural response compared with DEET: comparable response in mosquitoes to a 1% solution of DEET™
Anopheles gambiae [2]; in vivo
  repellent efficacy against A. gambiae (overall conclusion): effective repellent for A. gambiae; also recorded: effective repellent against A. gambiae
